Target: T1, tyrosine-protein kinase Yes (Homo sapiens, UniProt P07947)
T1 construct: gene YES1
Assay: reference inhibitor in ADP-Glo kinase assay, recombinant human Yes; no value given
Type: biochemical

T1 sequence (P07947 2-543): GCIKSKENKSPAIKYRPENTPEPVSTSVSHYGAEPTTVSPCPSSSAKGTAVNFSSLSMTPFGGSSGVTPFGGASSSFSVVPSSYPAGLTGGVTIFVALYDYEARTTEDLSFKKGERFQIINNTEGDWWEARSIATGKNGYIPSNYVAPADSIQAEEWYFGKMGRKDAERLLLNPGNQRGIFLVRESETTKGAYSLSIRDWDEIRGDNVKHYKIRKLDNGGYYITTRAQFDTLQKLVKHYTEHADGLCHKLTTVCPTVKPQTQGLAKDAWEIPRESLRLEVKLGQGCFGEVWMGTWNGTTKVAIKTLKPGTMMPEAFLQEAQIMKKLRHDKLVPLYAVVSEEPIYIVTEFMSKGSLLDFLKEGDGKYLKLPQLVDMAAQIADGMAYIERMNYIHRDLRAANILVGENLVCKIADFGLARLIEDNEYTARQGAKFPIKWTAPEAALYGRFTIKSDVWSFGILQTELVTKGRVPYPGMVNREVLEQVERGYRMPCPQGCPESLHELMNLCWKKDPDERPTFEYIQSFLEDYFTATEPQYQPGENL

CN[C@@H]1C[C@H]2O[C@@](C)([C@@H]1OC)n1c3ccccc3c3c4c(c5c6ccccc6n2c5c31)C(=O)NC4 [Staurosporine]
reference inhibitor in ADP-Glo kinase assay, recombinant human Yes; no value pri: Staurosporine, a well-known pan-kinase inhibitor typically used as a reference in kinase assays, was selected as an active inhibitor for Yes

Reference: PMC4660442, “Identification of potential inhibitors based on compound proposal contest: Tyrosine-protein kinase Yes as a target” (Scientific Reports, 2015)
